{
  "source": "patent US8859546B2",
  "about": "“Picolinamide inhibitors of kinases” (AbbVie Inc., priority 2011, dated 2014)",
  "data": [
    {"target": "T1, ALK (Homo sapiens, UniProt Q9UM73)", "T1 construct": "purchased Millipore", "T1 sequence (Q9UM73 19-1620)": "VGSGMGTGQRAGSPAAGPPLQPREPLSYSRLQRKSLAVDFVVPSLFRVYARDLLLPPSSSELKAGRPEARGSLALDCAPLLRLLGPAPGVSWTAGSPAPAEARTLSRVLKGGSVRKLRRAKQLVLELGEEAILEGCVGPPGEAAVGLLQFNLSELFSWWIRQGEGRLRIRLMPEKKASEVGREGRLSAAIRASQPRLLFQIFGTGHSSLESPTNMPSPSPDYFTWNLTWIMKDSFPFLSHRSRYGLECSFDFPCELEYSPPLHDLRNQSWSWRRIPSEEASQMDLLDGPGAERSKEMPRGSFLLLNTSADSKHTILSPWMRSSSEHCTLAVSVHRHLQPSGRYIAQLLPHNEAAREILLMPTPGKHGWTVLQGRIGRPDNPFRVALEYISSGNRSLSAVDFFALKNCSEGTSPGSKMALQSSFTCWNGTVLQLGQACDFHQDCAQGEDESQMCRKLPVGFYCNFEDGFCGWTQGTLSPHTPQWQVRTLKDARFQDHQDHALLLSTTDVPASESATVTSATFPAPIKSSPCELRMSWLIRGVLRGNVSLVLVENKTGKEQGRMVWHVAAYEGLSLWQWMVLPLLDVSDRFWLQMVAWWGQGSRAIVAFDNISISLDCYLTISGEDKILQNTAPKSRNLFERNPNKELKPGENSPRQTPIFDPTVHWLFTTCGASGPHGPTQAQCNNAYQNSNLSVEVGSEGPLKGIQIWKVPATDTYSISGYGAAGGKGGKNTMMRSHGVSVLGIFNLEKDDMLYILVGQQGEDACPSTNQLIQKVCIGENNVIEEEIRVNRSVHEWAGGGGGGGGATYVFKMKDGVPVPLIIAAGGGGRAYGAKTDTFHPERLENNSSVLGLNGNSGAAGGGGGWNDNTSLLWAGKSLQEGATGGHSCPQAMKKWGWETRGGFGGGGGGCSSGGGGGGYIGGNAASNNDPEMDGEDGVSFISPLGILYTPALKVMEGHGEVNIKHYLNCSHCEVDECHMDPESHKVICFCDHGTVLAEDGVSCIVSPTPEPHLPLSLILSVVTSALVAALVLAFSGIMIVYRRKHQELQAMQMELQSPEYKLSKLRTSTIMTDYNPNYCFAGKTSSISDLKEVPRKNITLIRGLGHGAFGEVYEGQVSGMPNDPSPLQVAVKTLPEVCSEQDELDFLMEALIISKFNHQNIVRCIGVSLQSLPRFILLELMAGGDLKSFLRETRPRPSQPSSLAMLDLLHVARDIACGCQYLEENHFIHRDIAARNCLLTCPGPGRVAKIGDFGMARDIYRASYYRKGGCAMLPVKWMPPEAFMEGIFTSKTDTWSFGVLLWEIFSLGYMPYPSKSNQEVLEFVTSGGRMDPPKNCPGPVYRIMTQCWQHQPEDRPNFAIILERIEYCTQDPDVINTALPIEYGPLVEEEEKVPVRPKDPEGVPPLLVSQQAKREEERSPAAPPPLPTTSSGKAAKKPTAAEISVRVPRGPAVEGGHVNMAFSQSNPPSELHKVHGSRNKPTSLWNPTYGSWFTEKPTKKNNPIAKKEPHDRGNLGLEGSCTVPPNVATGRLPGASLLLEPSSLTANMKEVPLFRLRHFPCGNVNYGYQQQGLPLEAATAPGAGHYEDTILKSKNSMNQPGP", "assay": "ALK kinase assay (HTRF), apparent Ki", "format": "biochemical", "conditions": "apparent Ki from IC50 by Cheng-Prusoff; ALK (Millipore), 50 μM ATP; read-out: HTRF_ALK Human-Ki", "procedure": "The following procedure is used to determine ALK Activity.\nALK kinase assays were conducted with the indicated final concentrations unless otherwise specified. In 384 well black plates (Axygen), 8 μl of compound (2% DMSO) was incubated with 8 μl Lck-peptide substrate (0.5 μM, biotin-Ahx-GAEEEIYAAFFA-COOH) and 8 μl of a mixture of ALK (3 nM, Millipore) and ATP (50 μM) in reaction buffer (50 mM Hepes, pH 7.4; 10 mM MgCl2; 2 mM MnCl2; 0.1 mM sodium orthovanadate; 0.01% BSA and 1 mM DTT (added fresh before assay) for 1 h at room temperature. Reactions were then quenched by the addition of 30 μl quench solution (streptavidin-allophycocyanin and Europium-cryptate PT66 monoclonal antibody in 40 mM Hepes, pH 7.4; 480 mM KF; 66 mM EDTA; 0.01% Tween-20; and 0.1% BSA) at room temperature. Plates were read 1 h after quenching on an Envision Multilaber Reader and IC50 values were calculated using a sigmoidal fit of the concentration/inhibition response curves. These values were converted to apparent Ki values using the Cheng-Prusoff relationship.\nAlternatively, 4 nM ALK (Millipore) and 50 μM ATP were pre-incubated for 30 min at room temperate in 384 well plates (Corning 3676) in 2.5× reaction buffer (125 nM SEB from Cisbio Bioassays, 12.5 mM MgCl2, 5 mM MnCl2, and 2.5 mM DTT). Reactions were initiated by the addition of 4 μl ALK-ATP mixture to 2 μl compounds (2% DMSO) and 4 μl TK-substrate biotin (Cisbio Bioassays). After incubation for 1 h at room temperature, reactions were quenched in 10 μl stop buffer (Cisbio detection buffer containing Streptavididn-XL665 and Eu-Cryptate PT66 monoclonal antibody). Plates were read 1 h after quenching on an Envision Multilaber Reader and IC50 values were calculated using a sigmoidal fit of the concentration/inhibition response curves. These values were converted to apparent Ki values using the Cheng-Prusoff relationship. Results are shown in Table 1 A correlates to an Ki=<100 nM, B correlates to an Ki between 100 nM and 1 μM, C correlates to an Ki=>1 μM.", "units": {"Ki": "nM"}, "values": [
      {"compound": "CN1CCN(c2ccc(Nc3cc(-c4cccc(NS(=O)(=O)C5CC5)c4)cnc3C(N)=O)cc2)CC1", "note": "[Example 66, 5-{3-[(cyclopropylsulfonyl)amino]phenyl}-3-{[4-(4-methylpiperazin-1-yl)phenyl]amino}pyridine-2-carboxamide]", "Ki": "100 to 1000"},
      {"compound": "Cc1oncc1S(=O)(=O)Nc1cccc(-c2cnc(C(N)=O)c(Nc3ccc(N4CCN(C)CC4)cc3)c2)c1", "note": "[Example 67, 5-(3-{[(5-methyl-1,2-oxazol-4-yl)sulfonyl]amino}phenyl)-3-{[4-(4-methylpiperazin-1-yl)phenyl]amino}pyridine-2-carboxamide]", "Ki": "100 to 1000"},
      {"compound": "CN1CCN(c2ccc(Nc3cc(-c4cccc(NS(=O)(=O)c5cccs5)c4)cnc3C(N)=O)cc2)CC1", "note": "[Example 68, 3-{[4-(4-methylpiperazin-1-yl)phenyl]amino}-5-{3-[(2-thienylsulfonyl)amino]phenyl}pyridine-2-carboxamide]", "Ki": "< 100"},
      {"compound": "CN1CCN(c2ccc(Nc3cc(-c4cccc(NS(=O)(=O)c5ccn(C)n5)c4)cnc3C(N)=O)cc2)CC1", "note": "[Example 69, 3-{[4-(4-methylpiperazin-1-yl)phenyl]amino}-5-(3-{[(1-methyl-1H-pyrazol-3-yl)sulfonyl]amino}phenyl)pyridine-2-carboxamide]", "Ki": "100 to 1000"},
      {"compound": "CN1CCN(c2ccc(Nc3cc(Nc4ccccc4)cnc3C(N)=O)cc2)CC1", "note": "[Example 70, 5-anilino-3-{[4-(4-methylpiperazin-1-yl)phenyl]amino}pyridine-2-carboxamide]", "Ki": "100 to 1000"},
      {"compound": "CN1CCN(c2ccc(Nc3cc(Nc4ccccc4S(=O)(=O)N(C)C)cnc3C(N)=O)cc2)CC1", "note": "[Example 71, 5-{[2-(dimethylsulfamoyl)phenyl]amino}-3-{[4-(4-methylpiperazin-1-yl)phenyl]amino}pyridine-2-carboxamide]", "Ki": "100 to 1000"}
    ]}
  ]
}
